Drawing on ChEMBL document CHEMBL1909046, “DrugMatrix in vitro pharmacology data”, this text covers IC50 and Ki for five molecules.

Series [1] addresses Beta-3 adrenergic receptor (Homo sapiens, UniProt P13945). Put plainly: DRUGMATRIX: Adrenergic beta3 radioligand binding (ligand: [125I] Cyanopindolol). It counts as cell membranes, HEK293, Membrane. As to conditions: hek293; Not Active = under 50% inhibition at 10 µM.
For series [2], the target named is 5-hydroxytryptamine receptor 4 (Cavia porcellus, UniProt O70528). It counts as cell membranes, Dunkin-Hartley, Striatum, Membrane. Also: in other assays of this panel Not Active means under 50% inhibition at 10 µM.
Sequence of 5-hydroxytryptamine receptor 4 (O70528 whole entry): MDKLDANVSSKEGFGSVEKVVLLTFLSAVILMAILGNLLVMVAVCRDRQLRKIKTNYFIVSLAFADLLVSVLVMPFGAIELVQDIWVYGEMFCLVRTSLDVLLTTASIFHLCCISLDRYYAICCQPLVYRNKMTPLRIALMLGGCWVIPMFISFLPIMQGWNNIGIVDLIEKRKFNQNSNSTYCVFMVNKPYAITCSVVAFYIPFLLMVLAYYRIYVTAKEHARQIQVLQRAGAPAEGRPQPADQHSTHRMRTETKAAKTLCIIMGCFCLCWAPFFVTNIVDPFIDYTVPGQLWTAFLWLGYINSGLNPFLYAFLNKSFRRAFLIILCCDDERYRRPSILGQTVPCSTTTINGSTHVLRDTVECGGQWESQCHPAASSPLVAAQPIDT
Series [3] in a line: DRUGMATRIX: Sigma2 radioligand binding (ligand: [3H] Ifenprodil). It counts as cell membranes, Rattus norvegicus, Wistar, Brain, Membrane. As to conditions: Not Active = under 50% inhibition at 10 µM.
For series [4], the target named is T1, Substance-K receptor (Homo sapiens, UniProt P21452). Also: in other assays of this panel Not Active means under 50% inhibition at 10 µM.
T1 sequence (P21452 whole entry): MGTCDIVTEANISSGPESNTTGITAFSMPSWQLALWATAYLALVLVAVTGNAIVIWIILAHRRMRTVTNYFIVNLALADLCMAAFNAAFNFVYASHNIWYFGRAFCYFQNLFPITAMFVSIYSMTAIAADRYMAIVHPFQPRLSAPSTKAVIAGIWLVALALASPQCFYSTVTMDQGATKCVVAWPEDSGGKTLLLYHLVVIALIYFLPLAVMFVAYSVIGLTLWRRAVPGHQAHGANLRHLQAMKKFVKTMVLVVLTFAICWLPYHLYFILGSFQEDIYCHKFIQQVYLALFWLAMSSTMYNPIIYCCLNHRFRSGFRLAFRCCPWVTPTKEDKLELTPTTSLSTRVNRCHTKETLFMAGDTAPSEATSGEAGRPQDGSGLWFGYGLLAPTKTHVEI
It counts as cell membranes, CHO, Membrane. As to conditions: cho.

Series [5] addresses C-C chemokine receptor type 2 (Homo sapiens, UniProt P41597). It counts as cell membranes, CHO-K1, Membrane. As to conditions: cho-k1.
In series [6] the target is T2, C-C chemokine receptor type 4 (Homo sapiens, UniProt P51679). Also: in other assays of this panel Not Active means under 50% inhibition at 10 µM.
T2 sequence (P51679 whole entry): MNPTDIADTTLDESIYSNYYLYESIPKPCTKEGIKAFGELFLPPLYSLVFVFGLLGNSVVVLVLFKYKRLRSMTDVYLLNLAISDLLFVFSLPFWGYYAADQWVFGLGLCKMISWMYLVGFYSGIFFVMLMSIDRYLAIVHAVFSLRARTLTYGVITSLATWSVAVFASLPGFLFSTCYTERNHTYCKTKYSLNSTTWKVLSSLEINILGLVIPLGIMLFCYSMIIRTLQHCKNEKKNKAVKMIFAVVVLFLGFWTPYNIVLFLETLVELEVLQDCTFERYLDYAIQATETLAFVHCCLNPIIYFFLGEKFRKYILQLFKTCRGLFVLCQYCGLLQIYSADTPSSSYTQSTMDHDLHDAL
It counts as cell membranes, Membrane. As to conditions: chem-1.

Series [7] concerns the target T3, D(4) dopamine receptor (Homo sapiens, UniProt P21917).
T3 sequence (P21917 whole entry): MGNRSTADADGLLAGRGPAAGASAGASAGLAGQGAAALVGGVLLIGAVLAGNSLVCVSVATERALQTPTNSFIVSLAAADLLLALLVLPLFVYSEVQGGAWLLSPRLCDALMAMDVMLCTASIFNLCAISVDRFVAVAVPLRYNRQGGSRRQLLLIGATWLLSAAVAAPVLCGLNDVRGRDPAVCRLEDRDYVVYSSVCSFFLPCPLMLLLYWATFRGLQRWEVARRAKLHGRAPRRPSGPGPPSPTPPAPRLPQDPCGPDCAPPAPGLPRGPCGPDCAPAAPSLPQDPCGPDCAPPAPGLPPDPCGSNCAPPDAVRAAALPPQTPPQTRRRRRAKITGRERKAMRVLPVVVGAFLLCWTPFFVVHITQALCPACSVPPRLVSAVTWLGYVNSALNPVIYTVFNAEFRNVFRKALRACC
Nature of the series: DRUGMATRIX: Dopamine D4.2 radioligand binding (ligand: [3H] Spiperone). It counts as cell membranes, CHO-K1, Membrane. As to conditions: cho-k1; Not Active = under 50% inhibition at 10 µM.

Series [8] deals with Sodium-dependent dopamine transporter (Homo sapiens, UniProt Q01959). Nature of the series: DRUGMATRIX: Dopamine Transporter radioligand binding (ligand: [125I] RTI-55). It counts as cell membranes, CHO-K1, Membrane. As to conditions: cho-k1; Not Active = under 50% inhibition at 10 µM.
Sequence of Sodium-dependent dopamine transporter (Q01959 whole entry): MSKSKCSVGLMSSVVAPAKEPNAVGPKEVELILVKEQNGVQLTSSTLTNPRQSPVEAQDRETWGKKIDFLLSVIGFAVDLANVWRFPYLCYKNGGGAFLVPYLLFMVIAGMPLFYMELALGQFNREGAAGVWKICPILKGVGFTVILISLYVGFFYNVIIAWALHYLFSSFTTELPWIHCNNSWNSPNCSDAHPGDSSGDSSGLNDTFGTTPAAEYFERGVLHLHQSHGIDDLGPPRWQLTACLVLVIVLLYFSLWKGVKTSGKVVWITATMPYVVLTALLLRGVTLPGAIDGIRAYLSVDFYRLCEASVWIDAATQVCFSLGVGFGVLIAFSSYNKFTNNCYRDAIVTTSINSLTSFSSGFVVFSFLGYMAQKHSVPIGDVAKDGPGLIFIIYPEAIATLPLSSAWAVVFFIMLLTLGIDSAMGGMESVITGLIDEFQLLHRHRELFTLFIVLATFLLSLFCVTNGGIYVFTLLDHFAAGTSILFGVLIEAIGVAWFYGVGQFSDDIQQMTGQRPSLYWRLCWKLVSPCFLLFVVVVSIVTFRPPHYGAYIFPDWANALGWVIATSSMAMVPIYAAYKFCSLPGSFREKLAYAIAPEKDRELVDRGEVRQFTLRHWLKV
A short description of series [9]: DRUGMATRIX: Glutamate, Kainate radioligand binding (ligand: [3H] Kainic acid). It counts as cell membranes, Rattus norvegicus, Wistar, Brain, Membrane. As to conditions: Not Active = under 50% inhibition at 10 µM.
Series [10] is described as follows: DRUGMATRIX: Glutamate, NMDA, Phencyclidine radioligand binding (ligand: [3H] TCP). It counts as cell membranes, Rattus norvegicus, Wistar, Cerebral cortex, Membrane. As to conditions: Not Active = under 50% inhibition at 10 µM.
Series [11] has as its target Histamine H2 receptor (Homo sapiens, UniProt P25021). It counts as cell membranes, CHO-K1, Membrane. As to conditions: cho-k1. Also: in other assays of this panel Not Active means under 50% inhibition at 10 µM.
Series [12] deals with T4, Leukotriene C4 synthase (Cavia porcellus, UniProt A6XA80).
T4 sequence (A6XA80 whole entry): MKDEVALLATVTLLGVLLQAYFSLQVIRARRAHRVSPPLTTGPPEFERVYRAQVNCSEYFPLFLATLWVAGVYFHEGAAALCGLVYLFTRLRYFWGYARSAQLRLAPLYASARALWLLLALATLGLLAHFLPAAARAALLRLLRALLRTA
Put plainly: biochemical. It counts as tissue-based, Lung.

The target in series [13] is T5, Muscarinic acetylcholine receptor M4 (Homo sapiens, UniProt P08173). Also: in other assays of this panel Not Active means under 50% inhibition at 10 µM.
T5 sequence (P08173 whole entry): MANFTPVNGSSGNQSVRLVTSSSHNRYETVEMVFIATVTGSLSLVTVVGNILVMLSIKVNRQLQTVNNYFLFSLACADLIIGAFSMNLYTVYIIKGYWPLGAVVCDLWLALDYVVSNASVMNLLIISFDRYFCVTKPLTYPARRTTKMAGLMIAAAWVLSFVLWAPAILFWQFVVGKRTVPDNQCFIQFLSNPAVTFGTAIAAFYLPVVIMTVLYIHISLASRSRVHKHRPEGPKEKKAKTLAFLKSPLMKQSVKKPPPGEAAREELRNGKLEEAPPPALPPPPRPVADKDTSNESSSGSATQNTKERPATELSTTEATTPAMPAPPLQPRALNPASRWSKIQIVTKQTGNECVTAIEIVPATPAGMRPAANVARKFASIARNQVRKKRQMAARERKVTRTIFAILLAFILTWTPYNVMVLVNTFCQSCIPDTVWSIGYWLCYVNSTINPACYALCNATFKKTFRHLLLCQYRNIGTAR
It counts as cell membranes, CHO-K1, Membrane. As to conditions: cho-k1.

Series [14] is described as follows: DRUGMATRIX: Phosphodiesterase PDE3 enzyme inhibition (substrate: [3H]cAMP + cAMP). It counts as tissue-based, Homo sapiens. As to conditions: platelet, Not Active = under 50% inhibition at 10 µM.
The target of series [15] is Tyrosine-protein kinase Fyn (Homo sapiens, UniProt P06241). Nature of the series: biochemical. As to conditions: insect cells. It counts as cell-based, Insect cells.
Sequence of Tyrosine-protein kinase Fyn (P06241 whole entry): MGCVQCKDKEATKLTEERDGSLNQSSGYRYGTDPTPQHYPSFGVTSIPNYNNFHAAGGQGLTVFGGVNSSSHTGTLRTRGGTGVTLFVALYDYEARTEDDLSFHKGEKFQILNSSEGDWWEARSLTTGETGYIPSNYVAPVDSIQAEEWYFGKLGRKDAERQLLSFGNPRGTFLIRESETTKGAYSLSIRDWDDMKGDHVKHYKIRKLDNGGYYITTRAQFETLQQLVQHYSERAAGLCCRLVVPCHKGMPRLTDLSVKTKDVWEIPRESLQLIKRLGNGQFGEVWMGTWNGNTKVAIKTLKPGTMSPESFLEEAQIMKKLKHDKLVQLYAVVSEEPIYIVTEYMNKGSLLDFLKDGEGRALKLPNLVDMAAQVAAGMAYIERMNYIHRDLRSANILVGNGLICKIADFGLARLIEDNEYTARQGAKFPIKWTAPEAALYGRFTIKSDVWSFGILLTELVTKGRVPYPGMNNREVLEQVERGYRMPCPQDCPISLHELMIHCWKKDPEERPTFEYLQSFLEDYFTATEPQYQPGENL
The nature of series [16]: DRUGMATRIX: Purinergic P2X radioligand binding (ligand: [3H] alpha, beta-Methylene-ATP). As to conditions: Not Active = under 50% inhibition at 10 µM. It counts as cell membranes, Oryctolagus cuniculus, New Zealand albino, Urinary bladder, Membrane.
Series [17] concerns the target Cytochrome P450 2C19 (Homo sapiens, UniProt P33261). As to conditions: bti-tn-5b1-4. Also: in other assays of this panel Not Active means under 50% inhibition at 10 µM.

pIC50: −log10 of the molar value.

Sequence of Cytochrome P450 2C19 (P33261 whole entry): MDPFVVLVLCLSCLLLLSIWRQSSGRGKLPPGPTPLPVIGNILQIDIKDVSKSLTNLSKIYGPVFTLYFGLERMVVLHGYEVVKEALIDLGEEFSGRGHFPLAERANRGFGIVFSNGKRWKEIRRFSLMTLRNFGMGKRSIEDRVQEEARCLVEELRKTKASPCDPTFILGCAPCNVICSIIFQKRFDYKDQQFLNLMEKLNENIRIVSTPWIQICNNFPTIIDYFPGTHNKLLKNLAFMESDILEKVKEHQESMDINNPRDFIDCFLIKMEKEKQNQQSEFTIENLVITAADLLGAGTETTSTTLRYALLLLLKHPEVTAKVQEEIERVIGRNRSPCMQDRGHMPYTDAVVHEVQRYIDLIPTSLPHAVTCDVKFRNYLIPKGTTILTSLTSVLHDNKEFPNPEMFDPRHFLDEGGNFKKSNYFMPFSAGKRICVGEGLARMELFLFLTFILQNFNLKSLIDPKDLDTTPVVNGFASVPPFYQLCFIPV
Sequence of Histamine H2 receptor (P25021 whole entry): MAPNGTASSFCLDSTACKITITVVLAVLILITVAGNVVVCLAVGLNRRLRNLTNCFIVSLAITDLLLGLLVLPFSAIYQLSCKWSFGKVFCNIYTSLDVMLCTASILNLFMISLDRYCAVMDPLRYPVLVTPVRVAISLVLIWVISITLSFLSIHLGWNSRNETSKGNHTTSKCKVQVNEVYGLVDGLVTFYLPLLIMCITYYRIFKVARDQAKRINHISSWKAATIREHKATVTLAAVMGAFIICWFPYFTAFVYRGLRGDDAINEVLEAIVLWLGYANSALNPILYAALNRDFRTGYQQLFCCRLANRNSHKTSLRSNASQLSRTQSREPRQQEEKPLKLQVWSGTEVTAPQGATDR
Sequence of Beta-3 adrenergic receptor (P13945 whole entry): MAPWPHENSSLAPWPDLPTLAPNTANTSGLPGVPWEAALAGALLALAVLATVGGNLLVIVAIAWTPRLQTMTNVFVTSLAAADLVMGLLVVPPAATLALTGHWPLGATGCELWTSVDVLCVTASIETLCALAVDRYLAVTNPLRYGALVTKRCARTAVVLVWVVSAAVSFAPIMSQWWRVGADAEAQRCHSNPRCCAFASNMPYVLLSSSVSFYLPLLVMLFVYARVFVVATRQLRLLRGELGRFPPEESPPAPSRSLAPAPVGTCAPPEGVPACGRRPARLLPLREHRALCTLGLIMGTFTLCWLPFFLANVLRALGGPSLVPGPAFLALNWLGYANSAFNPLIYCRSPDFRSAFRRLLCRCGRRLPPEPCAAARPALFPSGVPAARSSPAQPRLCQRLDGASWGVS
Sequence of C-C chemokine receptor type 2 (P41597 whole entry): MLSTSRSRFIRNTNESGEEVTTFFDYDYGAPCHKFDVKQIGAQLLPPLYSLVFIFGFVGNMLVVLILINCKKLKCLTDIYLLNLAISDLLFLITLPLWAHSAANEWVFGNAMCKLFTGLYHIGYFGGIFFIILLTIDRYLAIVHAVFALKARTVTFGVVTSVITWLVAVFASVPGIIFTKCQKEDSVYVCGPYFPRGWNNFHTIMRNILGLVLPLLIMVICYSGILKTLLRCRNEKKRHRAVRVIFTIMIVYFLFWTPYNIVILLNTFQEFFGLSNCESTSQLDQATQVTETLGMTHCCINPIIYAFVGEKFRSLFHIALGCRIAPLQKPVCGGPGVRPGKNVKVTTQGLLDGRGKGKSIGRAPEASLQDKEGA

`COCc1c(C(C)C)nc(C(C)C)c(/C=C/[C@@H](O)C[C@@H](O)CC(=O)O)c1-c1ccc(F)cc1` [CERIVASTATIN]: the IC50 result in [1], in series [2], in [3], in [4], in [5] and in series [6] was “Not Active” throughout. Further, the IC50 result in [7], in series [8], in [9], in series [10], in series [11] and in series [12] was “Not Active” in each case. The IC50 result in series [13], in [14], in series [15], in [16] and in series [17] was “Not Active” each time. Moreover, the Ki entry in series [3], in series [9], in [10], in [14], in series [16] and in series [17] was “Not Active” in each case.

For the molecule `O=C1CCc2cc(OCCCCc3nnnn3C3CCCCC3)ccc2N1` [CILOSTAZOL], the IC50 result in series [1], in series [2], in series [3], in series [4], in [5] and in [6] was “Not Active” throughout. Besides, the IC50 result in [7], in series [8], in series [9], in series [10], in [11] and in series [12] was “Not Active” throughout. Also, the IC50 entry in series [13], in series [15], in series [16] and in series [17] was “Not Active” throughout. In addition, the Ki entry in series [3], in series [9], in series [10], in series [16] and in [17] was “Not Active” in each case. Also, the pIC50 in series [14] (read-out: IC50) was 6.57.

Turning to `CN(C)CCCC1(c2ccc(F)cc2)OCc2cc(C#N)ccc21` (centres undefined) [CITALOPRAM], the IC50 result in series [1], in [2], in [3], in series [4], in series [5] and in [6] was “Not Active” in each case. Also, the IC50 entry in series [7], in series [8], in [9], in [10], in series [11] and in series [12] was “Not Active” throughout. Moreover, the IC50 entry in [13], in [14], in series [15], in [16] and in [17] was “Not Active” each time. Moreover, the Ki entry in series [3], in series [9], in series [10], in series [14], in [16] and in [17] was “Not Active” in each case.

Regarding `COC(=O)[C@H](c1ccccc1Cl)N1CCc2sccc2C1` [CLOPIDOGREL], the IC50 result in series [1], in series [2], in series [3], in series [4], in series [5] and in series [6] was “Not Active” each time. Moreover, the IC50 entry in [7], in [8], in [9], in series [10], in series [11] and in series [12] was “Not Active” each time. Moreover, the IC50 entry in [13], in series [14], in series [15], in series [16] and in [17] was “Not Active” each time. Besides, the Ki entry in series [3], in series [9], in [10], in [14], in series [16] and in series [17] was “Not Active” in each case.

Turning to `C[C@]12CCC(=O)C=C1CC[C@@H]1[C@@H]2C(=O)C[C@@]2(C)[C@H]1CC[C@]2(O)C(=O)CO` [CORTISONE], the IC50 result in series [1], in series [2], in [3], in series [4], in [5] and in series [6] was “Not Active” in each case. Also, the IC50 entry in [7], in series [8], in series [9], in series [10], in series [11] and in series [12] was “Not Active” throughout. The IC50 entry in [13], in [14], in series [15], in series [16] and in series [17] was “Not Active” each time. The Ki entry in series [3], in [9], in [10], in [14], in series [16] and in series [17] was “Not Active” in each case.

The term pIC50 denotes the IC50 on a negative log10 scale, so that one unit is a factor of ten.
